Reference: patent US20050013821A1, “Mint extract and related pharmaceutical compositions” (priority 2001, published 2005)

Key:
[1] = Solubility of menthol in composition ingredients; format: physicochemical; details: in liquid paraffin, white soft paraffin and essential oils
[2] = tested on: burning pain sensations in the vicinity of the vulva or anus; assay: Other trials of mint extract compositions (gel, cream, wipes, spray) applied topically against burning pains; format: in vivo, human
Experimental: The composition may comprise the extract or equivalent up to 10% w/w but it is preferably present in a concentration of not more than substantially 5% w/w of the composition.
Additional to these trials, compositions were prepared using menthol (and others using peppermint oil) embodied in a light cream (which included water) with which small pieces of soft cloth were impregnated to form wipes. […] Alternative combinations of ingredients could be utilised, e.g. as known to those skilled in the art, possibly including a pharmaceutically acceptable excipient for the active ingredient/s. Preferably, the composition should contain one or more of vitamins E, A and D combined with a moisturizing element in white soft paraffin form (obtained as “Vaseline”, Registered Trade Mark in the UK) or aloe form for delicate skins. The composition should preferably be formulated so that it is effectively greaseless and non-staining. It should not contain hexachlorophene.

solubility [1]: at least 10 % w/w
SMILES: CC1CCC(C(C)C)C(O)C1 (centres unmarked) [menthol]
outcome of trials as wipes ([2]; light cream (including water) impregnated on pieces of soft cloth): just as successful
relief compared with peppermint oil ([2]; menthol used instead of peppermint oil): Much improved relief
outcome of trials as spray ([2]; spray including glycols, glycerol and ethanol): used successfully
effect relative to peppermint oil ([2]; summary statement, related mint extracts): substantially more
